Consider two molecules from ChEMBL document CHEMBL3994575, “Helixconstraints and amino acid substitution in GLP-1 increase cAMP and insulin secretion but not beta-arrestin 2 signaling” (Eur J Med Chem, 2017).

The target in assay [1] is T1, Glucagon-like peptide 1 receptor (Homo sapiens, UniProt P43220). Briefly: Displacement of [125I]-GLP (7 to 36 residues) from human GLP1R expressed in CHO cell membranes incubated for 30 mins measured after 10 hrs by scintillation proximity assay.
The target of assay [2] is T1, Glucagon-like peptide 1 receptor. The assay can be described thus: Agonist activity at human GLP1R expressed in CHO cells assessed as cAMP accumulation incubated for 30 mins by LANCE assay. The assay is classed as functional, cell-based. (In general: Cyclic AMP is a second messenger, typically raised through Gs and lowered through Gi signalling.)
Assay [3] has the same target. The assay can be described thus: Agonist activity at human GLP1R expressed in CHOK1 cells assessed as induction of beta-galactosidase-tagged beta-arrestin2 recruitment incubated for 90 mins by PathHunter enzyme complementation assay. The assay is classed as cell-based. For orientation: Arrestin recruitment assays detect the binding of arrestin to an activated receptor.

The target of assay [4] is T2, Glucagon-like peptide 1 receptor (Rattus norvegicus, UniProt P32301).
T2 sequence (P32301 whole entry): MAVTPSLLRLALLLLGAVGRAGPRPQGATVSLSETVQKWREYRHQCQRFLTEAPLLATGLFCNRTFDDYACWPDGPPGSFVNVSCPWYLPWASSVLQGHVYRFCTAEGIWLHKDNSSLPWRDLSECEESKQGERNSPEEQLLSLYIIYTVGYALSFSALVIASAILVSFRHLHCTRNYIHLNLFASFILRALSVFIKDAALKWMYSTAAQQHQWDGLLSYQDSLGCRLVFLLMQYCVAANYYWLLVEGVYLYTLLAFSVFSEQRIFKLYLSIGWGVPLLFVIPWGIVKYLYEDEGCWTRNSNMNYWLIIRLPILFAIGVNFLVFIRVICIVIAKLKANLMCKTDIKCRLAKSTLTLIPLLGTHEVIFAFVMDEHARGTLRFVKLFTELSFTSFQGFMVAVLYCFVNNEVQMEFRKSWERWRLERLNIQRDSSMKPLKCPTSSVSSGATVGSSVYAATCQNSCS
The assay can be described thus: Agonist activity at GLP1R in rat INS-1 cells assessed as increase in glucose-stimulated insulin secretion after 1 hr by HTRF assay. The assay is classed as cell-based. Background: In TR-FRET formats the signal depends on donor and acceptor labels being close together.

Positions of bridges follow the written chain, without caps; N, C: chain ends. Residues, ends and D or L forms follow the SMILES beside them. Bounds are passed on as bounds.

One may read the Ki as the dissociation constant of the complex between target and ligand, obtained from inhibition or displacement. A higher Ki goes with lower affinity. As usually defined, the EC50 is the concentration needed to bring the measured effect to its halfway point.

T1 sequence (P43220 whole entry, the tested form may be a part): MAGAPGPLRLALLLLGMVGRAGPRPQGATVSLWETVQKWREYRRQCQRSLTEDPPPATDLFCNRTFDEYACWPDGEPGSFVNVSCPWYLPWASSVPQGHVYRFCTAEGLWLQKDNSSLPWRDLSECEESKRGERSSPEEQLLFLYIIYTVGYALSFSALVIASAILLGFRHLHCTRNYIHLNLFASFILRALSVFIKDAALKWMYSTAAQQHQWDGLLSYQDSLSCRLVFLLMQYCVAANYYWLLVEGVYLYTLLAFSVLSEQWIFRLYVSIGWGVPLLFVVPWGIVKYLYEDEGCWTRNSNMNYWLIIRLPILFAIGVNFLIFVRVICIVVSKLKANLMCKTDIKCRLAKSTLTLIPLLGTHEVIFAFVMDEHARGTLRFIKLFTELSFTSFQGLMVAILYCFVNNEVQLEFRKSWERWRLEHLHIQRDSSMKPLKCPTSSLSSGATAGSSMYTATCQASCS

Take `CC[C@H](C)[C@H](NC(=O)[C@H](Cc1ccccc1)NC(=O)[C@H](CCC(=O)O)NC(=O)[C@H](CCCCN)NC(=O)[C@H](C)NC(=O)[C@H](C)NC(=O)[C@H](CCC(N)=O)NC(=O)CNC(=O)[C@@H]1CCCN1C(=O)[C@H](CC(C)C)NC(=O)[C@H](Cc1ccc(O)cc1)NC(=O)[C@H](CO)NC(=O)[C@H](CO)NC(=O)[C@@H](NC(=O)[C@H](CC(=O)O)NC(=O)[C@H](CO)NC(=O)[C@@H](NC(=O)[C@H](Cc1ccccc1)NC(=O)[C@@H](NC(=O)CNC(=O)[C@H](CCC(=O)O)NC(=O)[C@H](C)NC(=O)[C@@H](N)Cc1cnc[nH]1)[C@@H](C)O)[C@@H](C)O)C(C)C)C(=O)N[C@H]1CCCCNC(=O)C[C@@H](C(=O)NCC(=O)N[C@@H](CCCNC(=N)N)C(=O)NCC(N)=O)NC(=O)[C@H](C(C)C)NC(=O)[C@H](CC(C)C)NC(=O)[C@H](Cc2c[nH]c3ccccc23)NC1=O` (H-HAEGTFTSDVSSYLPGQAAKEFIKWLVDGRG-NH2; lactam 24-28): in assay [1], the Ki is > 50 nM. Moreover, the EC50 in assay [2] was 20 nM; in assay [3] it was > 1000 nM; in assay [4], 130 nM.

`CC[C@H](C)[C@H](NC(=O)[C@H](Cc1ccccc1)NC(=O)[C@H](CCC(=O)O)NC(=O)[C@H](CCCCN)NC(=O)[C@H](C)NC(=O)[C@H](C)NC(=O)[C@H](CCC(N)=O)NC(=O)[C@H](C)NC(=O)[C@H](CCC(=O)O)NC(=O)[C@@H]1CC(=O)NCCCC[C@H](NC(=O)[C@H](CC(=O)O)NC(=O)[C@H](CO)NC(=O)[C@@H](NC(=O)[C@H](Cc2ccccc2)NC(=O)[C@@H](NC(=O)CNC(=O)[C@H](CCC(=O)O)NC(=O)[C@H](C)NC(=O)[C@@H](N)Cc2cnc[nH]2)[C@@H](C)O)[C@@H](C)O)C(=O)N[C@@H](CO)C(=O)N[C@@H](CO)C(=O)N[C@@H](Cc2ccc(O)cc2)C(=O)N1)C(=O)N[C@H]1CCCCNC(=O)C[C@@H](C(=O)NCC(=O)N[C@@H](CCCNC(=N)N)C(=O)NCC(N)=O)NC(=O)[C@H](C(C)C)NC(=O)[C@H](CC(C)C)NC(=O)[C@H](Cc2c[nH]c3ccccc23)NC1=O` (H-HAEGTFTSDKSSYDEAQAAKEFIKWLVDGRG-NH2; lactam 10-14, 24-28) displayed an inhibitory constant (Ki) in assay [1] of 1.4 nM. Besides, the EC50 came out at 0.004 nM in assay [2], 11 nM in assay [3] and 0.25 nM in assay [4].
